{"source": "patent US20120015090A1", "about": "“READILY WATER-SOLUBLE MYRICITRIN COMPOSITION” (SAN-EI GEN F.F.I., INC., priority 2009, published 2012)", "type_in_all_cases": "physicochemical", "key": {"[1]": {"assay": "Evaluation of MY composition solubility in water (Experiment Example 1)", "protocol": "The MY and γ-CD were used in the proportions (mole ratios) presented in Table 1, and […] different powdery MY compositions (Samples 1 to 22) were prepared according to the method of Example 1.\nThe powdery MY composition (Samples 1 to 22) or a control MY (MY itself) was added to water (20 ml) in a 100-ml Erlenmeyer flask while stirring. The samples were added until they could not be dissolved further, and formed deposits. Each solution was shaken (Bio-Shaker BR-3000LF, 160 rpm, amplitude=40 mm, Taitec Co., Ltd.) at 25° C. for 40 hours, and centrifuged at 9,000 rpm for 10 min to collect the supernatant. The supernatant was appropriately diluted with a 0.1% phosphoric acid aqueous solution, and absorbance (346 nm) was measured.\n1) MY (50 mg) was accurately weighed, and dissolved in methanol to make the volume precisely 100 ml. 2) The solution was appropriately diluted with a 0.1% phosphoric acid aqueous solution to prepare MY solutions of 0.0001, 0.0005, 0.001, 0.005, and 0.01 mg/ml concentrations. 3) The absorbance of the standard solution at a wavelength of maximum absorption was measured with a spectrophotometer. 4) A standard curve was created based on the content of MY in the MY solution, and the measured absorbance value."}, "[2]": {"assay": "Evaluation of water solubility with α- and β-cyclodextrins (Reference Experiment Example)", "protocol": "Evaluation of Water Solubility with α- and β-Cyclodextrins Instead of γ-CD, α-cyclodextrin (α-CD) and β-cyclodextrin (β-CD) (both from Nihon Shokuhin Kako Co., Ltd.) were used to prepare MY inclusions, and the solubility of the compositions in water was evaluated.\nSpecifically, an MY composition containing 3 moles of α-CD (Reference Sample 1), or an MY composition containing 3 moles of β-CD (Reference Sample 2) per mole of MY were prepared according to the method of Example 1, and the solubility of each composition in water was determined as an MY solubility (mg/ml) according to the method of Experiment Example 1. The solubility (mg/ml) of the MY itself was also determined as a control, and the solubility (fold) was calculated from the relative ratio of the two."}, "[3]": {"assay": "Evaluation of the solubility of other flavonoids in water (Experiment Example 2)", "protocol": "The solubility (mg/ml) of each composition in water in terms of the flavonoid was then determined according to the method of Experiment Example 1. The solubility (mg/ml) of the flavonoid itself in water was also determined as a control, and the solubility (fold) was calculated from the relative ratio of the two."}, "[4]": {"assay": "Evaluation of preservation stability, presence or absence of deposits in acid and sugar solutions (Experiment Example 3)", "set-up": "key: +: the presence of deposits; −: the absence of deposits; x: no dissolution in the acid and sugar solution", "details": "210 days", "protocol": "MY and γ-CD were used in the 1:1 proportion (mole ratio) to prepare a powder composition (sample 1) according to the method of Example 1. […] Each solution was hot-packed in a 100-ml glass vial (93° C.). The drinks so prepared were allowed to cool, and placed under 50° C., room temperature (25±2° C.), and low-temperature (5° C.) conditions for 210 days. The presence or absence of deposits was then checked by visual inspection. […] The drinks so prepared were allowed to cool, and placed under 50° C., room temperature (25±2° C.), and low-temperature (5° C.) conditions for 210 days. The presence or absence of deposits was then observed. In the table, the symbol “+” means the presence of deposits, and “−” the absence of deposits. The symbol “x” means no dissolution in the acid and sugar solution."}}, "data": [{"smiles": "C[C@H]1O[C@@H](Oc2c(-c3cc(O)c(O)c(O)c3)oc3cc(O)cc(O)c3c2=O)[C@@H](O)[C@@H](O)[C@@H]1O", "note": "[MY, myricitrin]", "values": [{"measurement": "Solubility (fold)", "setting": "[1]; relative to solubility of MY itself (non-inclusion) = 1, 25° C., 40 hours", "value": 1, "unit": "fold"}, {"measurement": "Solubility (in terms of myricitrin, mg/ml)", "setting": "[1]; shaken at 25° C. for 40 hours, MY:γ-CD = 1:X per sample", "value": 0.12, "unit": "mg/mL"}, {"measurement": "Solubility (fold)", "setting": "[2]; relative to MY alone = 1", "value": 1, "unit": "fold"}, {"measurement": "Solubility (in terms of myricitrin, mg/ml)", "setting": "[2]; water, method of Experiment Example 1, MY:CD = 1:3 mole ratio", "value": 0.10, "unit": "mg/mL"}, {"measurement": "Solubility (fold) (in terms of flavonoids)", "setting": "[3]; Flavonoid:γ-CD = 1:0 (mole ratio), flavonoid itself, reference", "value": 1, "unit": "fold"}, {"measurement": "Solubility (fold) (in terms of flavonoids)", "setting": "[3]; Flavonoid:γ-CD = 1:1 (mole ratio)", "value": 157.8, "unit": "fold"}, {"measurement": "Solubility (fold) (in terms of flavonoids)", "setting": "[3]; Flavonoid:γ-CD = 1:3 (mole ratio)", "value": 256.2, "unit": "fold"}, {"measurement": "Solubility (fold) (in terms of flavonoids)", "setting": "[3]; Flavonoid:γ-CD = 1:5 (mole ratio)", "value": 187.4, "unit": "fold"}, {"measurement": "Solubility (fold) (in terms of flavonoids)", "setting": "[3]; Flavonoid:γ-CD = 1:10 (mole ratio)", "value": 49.3, "unit": "fold"}, {"measurement": "Solubility (fold) (in terms of flavonoids)", "setting": "[3]; Flavonoid:γ-CD = 1:15 (mole ratio)", "value": 59.9, "unit": "fold"}, {"measurement": "Solubility (fold) (in terms of flavonoids)", "setting": "[3]; Flavonoid:γ-CD = 1:20 (mole ratio)", "value": 46.3, "unit": "fold"}, {"measurement": "presence or absence of deposits", "setting": "[4]; pH 3, 50° C., flavonoid concentration 0.05%", "value": "+"}, {"measurement": "presence or absence of deposits", "setting": "[4]; pH 3, 50° C., flavonoid concentration 0.10%", "value": "+"}, {"measurement": "presence or absence of deposits", "setting": "[4]; pH 3, refrigerated (5° C.), flavonoid concentration 0.05%", "value": "+"}, {"measurement": "presence or absence of deposits", "setting": "[4]; pH 3, refrigerated (5° C.), flavonoid concentration 0.10%", "value": "+"}, {"measurement": "presence or absence of deposits", "setting": "[4]; pH 3, room temperature, flavonoid concentration 0.05%", "value": "+"}, {"measurement": "presence or absence of deposits", "setting": "[4]; pH 3, room temperature, flavonoid concentration 0.10%", "value": "+"}, {"measurement": "presence or absence of deposits", "setting": "[4]; pH 6, 50° C., flavonoid concentration 0.05%", "value": "−"}, {"measurement": "presence or absence of deposits", "setting": "[4]; pH 6, 50° C., flavonoid concentration 0.10%", "value": "−"}, {"measurement": "presence or absence of deposits", "setting": "[4]; pH 6, refrigerated (5° C.), flavonoid concentration 0.05%", "value": "+"}, {"measurement": "presence or absence of deposits", "setting": "[4]; pH 6, refrigerated (5° C.), flavonoid concentration 0.10%", "value": "+"}, {"measurement": "presence or absence of deposits", "setting": "[4]; pH 6, room temperature, flavonoid concentration 0.05%", "value": "+"}, {"measurement": "presence or absence of deposits", "setting": "[4]; pH 6, room temperature, flavonoid concentration 0.10%", "value": "+"}, {"measurement": "presence or absence of deposits", "setting": "[4]; pH 9, 50° C., flavonoid concentration 0.05%", "value": "−"}, {"measurement": "presence or absence of deposits", "setting": "[4]; pH 9, 50° C., flavonoid concentration 0.10%", "value": "−"}, {"measurement": "presence or absence of deposits", "setting": "[4]; pH 9, refrigerated (5° C.), flavonoid concentration 0.05%", "value": "−"}, {"measurement": "presence or absence of deposits", "setting": "[4]; pH 9, refrigerated (5° C.), flavonoid concentration 0.10%", "value": "−"}, {"measurement": "presence or absence of deposits", "setting": "[4]; pH 9, room temperature, flavonoid concentration 0.05%", "value": "−"}, {"measurement": "presence or absence of deposits", "setting": "[4]; pH 9, room temperature, flavonoid concentration 0.10%", "value": "−"}]}]}
